In patent US8138357B2, “Compounds and their salts specific to the PPAR receptors and the EGF receptors and their use in the medical field” (Giuliani International Limited, priority 2005, dated 2012):
Entries after “also recorded” stand apart in the source; their conditions may differ.

Key:
PPARγ [1] = experiment: PPARγ protein expression by western blot in HT-29 cells; assay type: cell-based, human; details: 30 mM, 24 hours, HT-29, relative to β-actin
Description: The total proteins were obtained by cell homogenization in an extraction buffer consisting of PBS with 2% Triton™, Phenyl Methyl Sulphonyl Fluoride (PMSF) 100 mM and a classical protease inhibitor cocktail (2). The total proteins were then separated by polyacrylamide gel electrophoresis and electroblotted. Polyvinylidendifluoride (PVDF) membranes were incubated overnight with rabbit polyclonal primary antibody directed against PPARγ (dilution 1/500, TEBU, Le Perray en Yveline, France). β-actin was detected using a rabbit monoclonal primary antibody diluted at 1/10,000 (Sigma). Immunodetection with a secondary peroxidase-conjugated antibody (1/1000, Dako™, Trappes, France) and chemiluminescence was performed according to the manufacturer's protocol (ECL™, Amersham Pharmacia Biotech™, Orsay, France). Optical density values of PPARγ were given for each condition in proportion to the quantity of the internal control β-actin in the same sample (2).

HT-29 STD cells [2] = experiment: Cell proliferation by nuclear Ki-67 immunostaining; assay type: cell-based; details: Homo sapiens, 30 mM, 24 h, compared to untreated cells, read-out: inhibition of cell proliferation (Ki-67 staining)
Description: After 24 h of culture, HT-29 STD cells were treated during 24 h with the new molecules 13, 14, 17, 26 and 31, at 30 mM. […] The pH of the drug solutions was adjusted to 7.4 with NaOH. Cells were fixed in PFA 4%, permeabilized in PBS containing 0.1% Triton X-100™ at 4° C. and then incubated with goat normal serum and blocking buffer (1% BSA in PBS) to minimize non-specific adsorption of the antibody. Cell proliferation was assessed by a nuclear Ki-67 staining using mouse monoclonal primary antibody directed against Ki-67 (dilution 1:50 overnight; ZYMED™ Clinisciences™, Montrouge, France). […] Nuclei were stained with Hoescht 33342 solution (0.125 mg/mL) (Sigma-Aldrich™) and visualized under a fluorescence microscope (Leica™, Bensheim, Germany). Negative controls consisted of staining with a non-specific mouse serum instead of the specific antibody. Counts of at least 500 cells/sample were systematically performed blindly in one experiment. The results were expressed as the mean±SEM of the number of stained cells.

PPARγ [3] = target: T1, PPARγ (Homo sapiens, UniProt P37231); experiment: PPARγ activation, PPRE (2XCYP) luciferase reporter in transfected HT-29 STD cells (Example 8); assay type: cell-based; details: 30 mM, 24 hours, HT-29 STD transfected with 2XCYP
T1 construct: HT-29 STD cells were transiently transfected using the Effectene™ transfection reagent; endogenous in cells; host or cells: HT-29 STD (human colon carcinoma)
T1 sequence (P37231 1-505): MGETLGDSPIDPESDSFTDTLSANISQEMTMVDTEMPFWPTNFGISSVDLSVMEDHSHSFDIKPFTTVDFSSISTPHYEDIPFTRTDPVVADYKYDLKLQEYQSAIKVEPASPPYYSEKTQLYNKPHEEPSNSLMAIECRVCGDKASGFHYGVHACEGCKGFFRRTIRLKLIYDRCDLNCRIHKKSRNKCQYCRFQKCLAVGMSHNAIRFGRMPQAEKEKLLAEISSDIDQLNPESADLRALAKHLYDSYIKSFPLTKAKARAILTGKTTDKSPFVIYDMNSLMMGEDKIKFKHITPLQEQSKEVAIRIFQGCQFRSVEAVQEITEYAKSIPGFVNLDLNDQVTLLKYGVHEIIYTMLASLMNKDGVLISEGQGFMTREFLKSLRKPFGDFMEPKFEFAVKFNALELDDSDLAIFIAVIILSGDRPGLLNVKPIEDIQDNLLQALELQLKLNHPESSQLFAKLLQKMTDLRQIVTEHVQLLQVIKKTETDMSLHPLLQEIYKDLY
Description: HT-29 STD cells were transiently transfected using the Effectene™ transfection reagent (Qiagen™) according to instructions from the manufacturer. To test PPARγ activation, we performed transfection with 500 ng of a minimal promoter construct containing two copies of PPRE obtained from the cytochrome p450 4A (2XCYP) (1). The renilla luciferase plasmid ([…]) was also transfected as an internal control for monitoring transfection efficiency and for normalizing the firefly luciferase activity. Transfected cells were left for 48 hours incubation at 37° C. […] The pH of the drug solutions was adjusted to 7.4 with NaOH. Total cell extracts were prepared using the Passive Lysis Buffer (Promega™, Madison, Wis.). Luciferase activity was assayed in 20 μl of the extract using the Promega™ Dual Luciferase assay system according to the manufacturer's protocol. Transfections were assayed in triplicate in at least three separate experiments. The luciferase activity was expressed as fold of the activity obtained in cells treated with the different molecules divided by luciferase activity from non-stimulated cells.

DLD-1 cells = experiment: Cell growth by colorimetric BrdU incorporation assay, DLD-1; assay type: cell-based; details: Homo sapiens, 48 hours
Description: (§1) HT-29 and DLD-1 cells were cultured in McCoy and RPMI1640 media respectively, supplemented with 10% fetal bovine serum (FBS), 1% penicillin/streptomycin (P/S) and 50 μg/ml gentamycin. HT-115 were cultured in DMEM medium supplemented with 15% FBS and 1% P/S. Cells were maintained in a humidified incubator at 37° C., in the presence of 5% CO2.
(§2) For cell growth assays, single-cell suspensions were plated at 2×10^3 cells/well (4×10^3 cells/well for HT115) in 96-well culture dishes in medium containing 0.5% FBS and allowed to adhere. The non-adherent cells were then removed, and fresh medium containing 0.5% FBS was added into each well. Cells were cultured in the presence or absence of the specified substances. Each substance was dissolved as a 25 mM stock solution in culture medium containing 0.5% FBS, and the pH of each stock solution was adjusted to 7.4, if necessary, with NaOH. Substances were used at a final concentration ranging from 0.5 to 10 mM. Cell proliferation was determined by measuring the incorporation of 5-bromo-2′-deoxyuridine (BrdU) into DNA using a commercially available cell proliferation kit (Roche Diagnostics™, Monza, Italy). BrdU was added to the cell cultures during the last 6 hours of incubation, and the level of BrdU-positive cells was assessed after 48 h culture by enzyme-linked immunosorbent assay (ELISA).
(§3) Optical density (OD) was determined at 450 nm using an ELISA reader. Experiments were performed in triplicate and the results are reported as the mean±standard deviation (SD).

HT-29, HT-115 and DLD-1 = experiment: Colon cancer cell growth by BrdU assay, three human colon carcinoma cell lines; assay type: cell-based; details: final concentration 10 mM, 48 h
Description: For this purpose, three human colon carcinoma cell lines (i.e. HT-29, HT-115 and DLD-1) were used. These cell types were selected on the basis of the cyclooxigenase-2 (COX-2) expression. Indeed, HT-115 cells express a biologically active COX-2, HT-29 cells express a non-functional COX-2 isoform, and DLD-1 are COX-2-deficient cells.
as §1, §2, §3

HT-29 STD cells [4] = experiment: Detection of apoptosis by TUNEL assay; assay type: cell-based, human; details: 30 mM, 24 h
Description: After 24 h of culture, HT-29 STD cells were treated during 24 h with the new molecules 13, 14, 17, 26 and 31, at a concentration of 30 mM. […] The pH of the drug solutions was adjusted to 7.4 with NaOH. Cells undergoing apoptosis were identified by enzymatic labelling of DNA strands using a terminal transferase dUTP nick end labelling assay (TUNEL assay, Roche Diagnostics™, Meylan, France). Counts of at least 500 cells/sample were systematically performed blindly in one experiment. The results were expressed as the mean±SEM of the number of stained cells.

CC(C)Oc1ccc(N)cc1C(=O)O [compound 31, 5-amino-2-isopropoxybenzoic acid]
induction of PPARγ protein levels quantified by western blot (PPARγ [1]): 2 fold
inhibition at 30000 µM (HT-29 STD cells [2]): 67 to 75%
reporter gene activity, factor of increase relative to untreated cells (PPARγ [3]): two-fold; also recorded: about twice
inhibition at 500 µM (DLD-1 cells; 0.5 mM): 0%
inhibition at 1000 µM (DLD-1 cells; 1 mM): 0%
inhibition at 2500 µM (DLD-1 cells; 2.5 mM): 0%
inhibition at 5000 µM (DLD-1 cells; 5 mM): 8.8%
inhibition at 10000 µM (DLD-1 cells; 10 mM): 31.7%
cell growth inhibition (HT-29, HT-115 and DLD-1): significantly inhibited cell growth
apoptosis, epithelial cells identified by TUNEL (HT-29 STD cells [4]): 80%
